The target in assay [1] is T1, Glycogen synthase kinase-3 beta (Homo sapiens, UniProt P49841). As to the kind of experiment: Inhibition of human flag-tagged GSK3-beta expressed in HEK-MSRII cells assessed as CRMP-2 phosphorylation by alphaLISA assay. Type of assay: cell-based. (Bead proximity is the source of the signal in Alpha formats.)
The target of assay [2] is T1, Glycogen synthase kinase-3 beta. The experiment in a line: Inhibition of human GSK3-beta expressed in baculovirus by fluorescence polarization assay. In general terms: Polarisation of emitted light reports the rotation of a fluorescent probe.
Assay [3] addresses Cyclin-dependent kinase 2 (Homo sapiens, UniProt P24941). The experiment in a line: Inhibition of recombinant CDK2 expressed in baculovirus using […] by 33-P leadseeker assay.
The target in assay [4] is T1, Glycogen synthase kinase-3 beta. As to the kind of experiment: Inhibition of human full length His-tagged GSK3-beta expressed in baculovirus by alphaLISA assay.

SMILES strings stand for the structures.

The term IC50 denotes the midpoint of a concentration-inhibition curve.

T1 sequence (P49841 whole entry): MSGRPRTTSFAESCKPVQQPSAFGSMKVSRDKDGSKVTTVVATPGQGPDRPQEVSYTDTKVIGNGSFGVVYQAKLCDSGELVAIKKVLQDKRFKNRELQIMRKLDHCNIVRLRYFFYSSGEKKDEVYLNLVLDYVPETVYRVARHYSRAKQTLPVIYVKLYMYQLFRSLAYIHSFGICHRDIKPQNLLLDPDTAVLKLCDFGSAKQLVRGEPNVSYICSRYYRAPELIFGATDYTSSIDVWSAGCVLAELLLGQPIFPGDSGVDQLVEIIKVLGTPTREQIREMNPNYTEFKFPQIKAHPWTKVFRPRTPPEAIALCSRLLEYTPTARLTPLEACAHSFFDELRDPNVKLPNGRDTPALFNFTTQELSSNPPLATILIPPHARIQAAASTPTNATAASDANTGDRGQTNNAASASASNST

As for `Cc1cc(-c2cc3c(=O)[nH]cc(-c4cccc(NS(C)(=O)=O)c4)c3s2)ccn1`, the IC50 in assay [1] was > 100000 nM; in assay [2] it was 2510 nM.
Regarding `N#CCc1cccc(-c2c[nH]c(=O)c3cc(-c4ccncc4)sc23)c1`, the IC50 in assay [1] is 631 nM; in assay [2], 10 nM; in assay [3], 3980 nM.
On the same counts, the results for `O=c1[nH]cc(-c2cccc3cccnc23)c2sc(-c3ccncc3)cc12` are 7940 nM, 316 nM and 12600 nM.
Taken in the same sequence, the figures for `COc1cc(F)ccc1-c1c[nH]c(=O)c2cc(-c3ccncc3)sc12` were 5010 nM, 158 nM and 5010 nM.
On the same counts, the results for `N#Cc1ccc(F)c(-c2c[nH]c(=O)c3cc(-c4ccncc4)sc23)c1` are 79.4 nM, 5.01 nM and 200 nM.
Turning to `O=c1[nH]cc(-c2ccc3c(c2)OCCO3)c2sc(-c3ccncc3)cc12`, the IC50 was 631 nM in assay [1], 6.31 nM in assay [2] and 1580 nM in assay [3].
Taken in the same sequence, the figures for `COCc1ccccc1-c1c[nH]c(=O)c2cc(-c3ccncc3)sc12` were 3980 nM, 100 nM and 5010 nM.
Taken in the same sequence, the figures for `CN(C)C(=O)c1ccccc1-c1c[nH]c(=O)c2cc(-c3ccncc3)sc12` were 6310 nM, 316 nM and > 15800 nM.
`CS(=O)(=O)Nc1cccc(-c2c[nH]c(=O)c3cc(-c4ccnc5[nH]ccc45)sc23)c1`: the IC50 in assay [1] is > 100000 nM; in assay [3], 3160 nM; in assay [4] it was 20 nM.
Consider `Cn1cc(-c2ccc(N3CCOCC3)cc2)c2sc(-c3ccncc3)cc2c1=O`, for which the concentration for half-maximal inhibition (IC50) in assay [1] is > 100000 nM; in assay [3] it was > 15800 nM; in assay [4], 251 nM.
As to `N#Cc1cscc1-c1c[nH]c(=O)c2cc(-c3ccncc3)sc12`, the values for the IC50 in assay [1], in assay [2] and in assay [3] were 316 nM, 12.6 nM and 158 nM, respectively.
As to `O=c1[nH]cc(-c2ccc(N3CCOCC3)cc2)c2sc(-c3ccncc3)cc12`, the IC50 in assay [1] was 1260 nM; in assay [2], 501 nM; in assay [3] it was 15800 nM; in assay [4], 63.1 nM.
`O=c1[nH]cc(-c2cccc(Cl)n2)c2sc(-c3ccncc3)cc12`: the IC50 in assay [1] was 3980 nM; in assay [2], 10 nM; in assay [3], > 15800 nM.
On the same counts, the results for `CCOc1ccc(-c2c[nH]c(=O)c3cc(-c4ccncc4)sc23)cn1` are 3160 nM, 126 nM and 6310 nM.
As for `COc1ncc(-c2ccc(N3CCOCC3)cc2)c2sc(-c3ccncc3)cc12`, the IC50 in assay [1] was > 100000 nM; in assay [3] it was > 15800 nM; in assay [4], 10000 nM.
Taken in the same sequence, the figures for `O=c1[nH]cc(-c2ccc(N3CCOCC3)cc2)c2sc(-c3cn[nH]c3)cc12` were 398 nM, 251 nM and 12.6 nM.
